# Data from patent publication US11827917B1, “Methods for the conversion of fermentable sugars to ethanol” (Colorado State University Research Foundation, priority 2020, dated 2023).
# Entries after “also recorded” stand apart in the source; their conditions may differ. Marks after values point to notes of the source that are not given here.
# Tests used:
# Assay type in all cases: cell-based, Saccharomyces cerevisiae
# S. cerevisiae JAY 270 = test: Screening of growth in 24-well plates on YPDA; conditions: for Cell growth score (colony size): YPDA, 30° C., 24 h
# Description: Procedure: An inoculum culture of S. cerevisiae JAY 270 was grown in 100 mL of yeast extract-peptone-dextrose (YPD) medium (10 g/L yeast extract, 20 g/L peptone, 20 g/L glucose) in 200-mL serum bottles overnight in a shaker at 30° C. and 200 rpm. The cells were collected by centrifuging 10 min at 4000×g and 4° C. To wash off the medium residue, the cell pellet was resuspended in 30 mL of sterile 0.8% (w/v) NaCl solution and centrifuged at 4000×g for 10 min. The cell pellet was washed twice. Finally, the cell pellet was resuspended and diluted in 0.8% (w/v) NaCl to achieve cell concentrations of OD600=0.02 and 0.2.
# The eight compounds were added in YPDA separately at 0.03%, 0.05%, 0.1%, and 0.2% (w/v). The standard control treatment contained only YPDA medium without addition of these compounds. Since the TrpOH and TyrOH stock solutions were dissolved in DMSO, the controls for those tests were YPDA with the same concentration of DMSO. A 3-mL aliquot of YPDA medium with or without the test compounds were loaded in each well of the 24-well plate.
# Ten μL of the prepared S. cerevisiae JAY 270 cell suspension at OD600=0.02 or 0.2 was loaded onto the YPDA medium in each well of the 24-well plates. Then the plates were sealed with Parafilm and incubated at 30° C. for 24 h. There were four biological replicates for each treatment.
# Yeast cell growth was evaluated by visual observation of the colony size in the well and scored as 0, +, ++, and +++.
# S. cerevisiae ATCC 26603 = test: Serum-bottle cultivation in YPD, different yeast strains; conditions: 0.2%
# Description: (§1) Analytical methods: Cell growth was evaluated by monitoring OD600 and cell dry mass concentration. For dry mass measurements, 1.0 mL of culture was transferred to a pre-dried and pre-weighed 2-mL centrifuge tube. The tubes were centrifuged for 10 min at 14000 rpm using a microcentrifuge, and then the cell pellets were dried in an oven for 3 days at 65° C. The cell dry mass was determined by subtracting the initial tube mass from the dried mass of tube with cells. The concentrations of glucose, ethanol, and glycerol were measured via HPLC (Shimadzu LC20A series) outfitted with a refractive index detector and using an Aminex HPX-87H (300×7.8 mm) organic acid column and Cation H+ guard cartridge (Bio Rad Laboratories, Hercules, CA). The column was maintained at 65° C. and the mobile phase was 5 mM sulfuric acid with a flow rate of 0.6 mL/min. Standard compound solutions were used to calibrate the HPLC. Each sample was analyzed three times by HPLC.
# (§2) Procedure: Seven yeast strains (S. cerevisiae ATCC 26603, S. cerevisiae JAY 238, S. cerevisiae JAY 240, S. cerevisiae JAY 241, S. paradoxus JAY 1502, S. kudriavzezii JAY 1503, and S. mikatae JAY 1504) were pre-cultured in 30 mL of YPD medium in 100 mL serum bottle overnight in a shaker at 30° C. and 200 rpm. The precultured yeast cells of each strains were collected and washed twice. Finally, the cell pellet was resuspended in about 10 mL 0.8% (w/v) NaCl and the OD600 measured. TyrOH, PheOH, and TrpOH were added to 30 mL of YPD medium in 100-mL serum bottles at 0.2% (w/v) respectively. The same amount of DMSO was added in YPD medium and served as control to the TrpOH and TyrOH treatments. The prepared yeast cells were added to obtain the initial cell concentration at OD600=0.2. The serum bottles were sealed and cultured in a shaker at 30° C. and 200 rpm for 24 h. There were three biological replicates for each treatment.
# S. cerevisiae JAY 240 = test: as above; conditions: 0.2%
# Description: as §1, §2
# S. cerevisiae JAY 238 = test: as above; conditions: 0.2%
# Description: as §1, §2
# S. cerevisiae JAY 241 = test: as above; conditions: 0.2%
# Description: as §1, §2
# [1] = S. cerevisiae ATCC 26603, YPD (Table 9B)
# [2] = S. cerevisiae JAY 240, YPD (Table 9B)
# [3] = S. cerevisiae JAY 238, YPD (Table 9B)
# [4] = S. cerevisiae JAY 241, YPD (Table 9B)
structure (smiles),measurement,setting,value
"OCCc1c[nH]c2ccccc12 [TrpOH, tryptophol]",Cell growth score (colony size),S. cerevisiae JAY 270; 0.03% (w/v),+++
same,Cell growth score (colony size),S. cerevisiae JAY 270; 0.05% (w/v),++
same,Cell growth score (colony size),S. cerevisiae JAY 270; 0.10% (w/v),+
same,Cell growth score (colony size),S. cerevisiae JAY 270; 0.20% (w/v),0
same,Concentration at which cell growth was reduced in the plate assay,S. cerevisiae JAY 270; molar equivalent of the % w/v value,3.1 mM
same,Effect on cell growth in the plate assay (words),"S. cerevisiae JAY 270; tested concentrations, 24-well plates",inhibited growth; also recorded: reduced the growth
same,Concentration at which cell growth was reduced/inhibited in the plate assay,"S. cerevisiae JAY 270; w/v, 24-well plates",0.05%
same,Biomass Yield,S. cerevisiae ATCC 26603; S. cerevisiae ATCC 26603,0.059 ± 0.001 g/g
same,Biomass yield % change vs. control,S. cerevisiae ATCC 26603; S. cerevisiae ATCC 26603,−17* %
same,EtOH yield,S. cerevisiae ATCC 26603; S. cerevisiae ATCC 26603,0.495 ± 0.008 g/g
same,Glycerol yield,S. cerevisiae ATCC 26603; S. cerevisiae ATCC 26603,0.054 ± 0.005 g/g
same,Glycerol yield % change vs. control,S. cerevisiae ATCC 26603; S. cerevisiae ATCC 26603,−25* %
same,DCW,"S. cerevisiae ATCC 26603; S. cerevisiae ATCC 26603, YPD",1.13 mg
same,DCW Δ vs. ref,"S. cerevisiae ATCC 26603; S. cerevisiae ATCC 26603, YPD",64.2%
same,OD600,"S. cerevisiae ATCC 26603; S. cerevisiae ATCC 26603, YPD",0.77
same,OD600 Δ vs. ref,"S. cerevisiae ATCC 26603; S. cerevisiae ATCC 26603, YPD",54.8%
same,Biomass Yield,S. cerevisiae ATCC 26603; [1],0.059 + 0.001 g/g
same,Biomass yield Δ vs. ref,S. cerevisiae ATCC 26603; [1],−16.7%
same,Ethanol yield,S. cerevisiae ATCC 26603; [1],0.495 ± 0.008 g/g
same,Ethanol yield Δ vs. ref,S. cerevisiae ATCC 26603; [1],14.2%
same,Glycerol yield,S. cerevisiae ATCC 26603; [1],0.054 ± 0.005 g/g
same,Glycerol yield Δ vs. ref,S. cerevisiae ATCC 26603; [1],−24.74%
same,Biomass Yield,S. cerevisiae JAY 240; S. cerevisiae JAY 240,0.055 ± 0.006 g/g
same,Biomass yield % change vs. control,S. cerevisiae JAY 240; S. cerevisiae JAY 240,−24* %
same,EtOH yield,S. cerevisiae JAY 240; S. cerevisiae JAY 240,0.464 ± 0.053 g/g
same,Glycerol yield,S. cerevisiae JAY 240; S. cerevisiae JAY 240,0.035 ± 0.000 g/g
same,Glycerol yield % change vs. control,S. cerevisiae JAY 240; S. cerevisiae JAY 240,−12* %
same,DCW,"S. cerevisiae JAY 240; S. cerevisiae JAY 240, YPD",1.55 mg
same,DCW Δ vs. ref,"S. cerevisiae JAY 240; S. cerevisiae JAY 240, YPD",50.8%
same,OD600,"S. cerevisiae JAY 240; S. cerevisiae JAY 240, YPD",1.12
same,OD600 Δ vs. ref,"S. cerevisiae JAY 240; S. cerevisiae JAY 240, YPD",45.0%
same,Biomass Yield,S. cerevisiae JAY 240; [2],0.055 + 0.006 g/g
same,Biomass yield Δ vs. ref,S. cerevisiae JAY 240; [2],−23.5%
same,Ethanol yield,S. cerevisiae JAY 240; [2],0.464 ± 0.053 g/g
same,Ethanol yield Δ vs. ref,S. cerevisiae JAY 240; [2],14.5%
same,Glycerol yield,S. cerevisiae JAY 240; [2],0.035 ± 0.000 g/g
same,Glycerol yield Δ vs. ref,S. cerevisiae JAY 240; [2],−11.63%
same,Biomass Yield,S. cerevisiae JAY 238; S. cerevisiae JAY 238,0.060 ± 0.000 g/g
same,Biomass yield % change vs. control,S. cerevisiae JAY 238; S. cerevisiae JAY 238,−12* %
same,EtOH yield,S. cerevisiae JAY 238; S. cerevisiae JAY 238,0.482 ± 0.017 g/g
same,Glycerol yield,S. cerevisiae JAY 238; S. cerevisiae JAY 238,0.023 ± 0.002 g/g
same,Glycerol yield % change vs. control,S. cerevisiae JAY 238; S. cerevisiae JAY 238,−49* %
same,Glycerol yield decrease from control,S. cerevisiae JAY 238; S. cerevisiae JAY 238,42%
same,DCW,"S. cerevisiae JAY 238; S. cerevisiae JAY 238, YPD",1.30 mg
same,DCW Δ vs. ref,"S. cerevisiae JAY 238; S. cerevisiae JAY 238, YPD",46.4%
same,OD600,"S. cerevisiae JAY 238; S. cerevisiae JAY 238, YPD",0.39
same,OD600 Δ vs. ref,"S. cerevisiae JAY 238; S. cerevisiae JAY 238, YPD",16.7%
same,Biomass Yield,S. cerevisiae JAY 238; [3],0.060 + 0.000 g/g
same,Biomass yield Δ vs. ref,S. cerevisiae JAY 238; [3],−11.8%
same,Ethanol yield,S. cerevisiae JAY 238; [3],0.482 ± 0.017 g/g
same,Ethanol yield Δ vs. ref,S. cerevisiae JAY 238; [3],14.7%
same,Glycerol yield,S. cerevisiae JAY 238; [3],0.020 ± 0.002 g/g
same,Glycerol yield Δ vs. ref,S. cerevisiae JAY 238; [3],−48.90%
same,Biomass Yield,S. cerevisiae JAY 241; S. cerevisiae JAY 241,0.063 ± 0.004 g/g
same,Biomass yield % change vs. control,S. cerevisiae JAY 241; S. cerevisiae JAY 241,+8.6%
same,EtOH yield,S. cerevisiae JAY 241; S. cerevisiae JAY 241,0.435 ± 0.035 g/g
same,Glycerol yield,S. cerevisiae JAY 241; S. cerevisiae JAY 241,0.041 ± 0.004 g/g
same,Glycerol yield % change vs. control,S. cerevisiae JAY 241; S. cerevisiae JAY 241,−26* %
same,DCW Δ vs. ref,"S. cerevisiae JAY 241; S. cerevisiae JAY 241, YPD",58.5%
same,OD600,"S. cerevisiae JAY 241; S. cerevisiae JAY 241, YPD",1.00
same,OD600 Δ vs. ref,"S. cerevisiae JAY 241; S. cerevisiae JAY 241, YPD",50.1%
same,Biomass Yield,S. cerevisiae JAY 241; [4],0.063 + 0.004 g/g
same,Biomass yield Δ vs. ref,S. cerevisiae JAY 241; [4],8.6%
same,Ethanol yield,S. cerevisiae JAY 241; [4],0.435 ± 0.035 g/g
same,Ethanol yield Δ vs. ref,S. cerevisiae JAY 241; [4],13.8%
same,Glycerol yield,S. cerevisiae JAY 241; [4],0.041 ± 0.004 g/g
same,Glycerol yield Δ vs. ref,S. cerevisiae JAY 241; [4],−25.72%
